{
  "source": "patent US11767353B2",
  "about": "“Trail compositions with reduced immunogenicity” (Theraly Fibrosis, Inc., priority 2020, dated 2023)",
  "key": {"[1]": {"assay": "Formulation stability and freeze-thaw stability", "assay_type": "physicochemical", "description": "The stability may be evaluated by measuring the ratio of soluble material to the insoluble material that can be separated by centrifugation. The intact structure of stored material can also be confirmed by IEX-HPLC (SP-NPR) and RP-HPLC (C4)."}, "[2]": {"system": "activated primary human hepatic stellate cells (HSCs)", "assay": "Cell cytotoxicity assay on activated hepatic stellate cells (myofibroblasts)", "assay_type": "cell-based", "settings": "FIG. 3", "method": "In addition to the standard physico-chemical characterization, the leads were tested for the target potency and off-target toxicity. Initially, selective apoptotic activities of various TLY012 leads were tested in normal (off-target) and myofibroblasts (target cells) by utilizing quiescent and activated primary human hepatic stellate cells (HSCs) respectively. Briefly, quiescent and culture-activated HSCs were incubated with TLY012 leads and cell viability was determined by cell cytotoxicity assays."}, "ASPC-1/PSC xenografts": {"system": "ASPC-1/PSC xenografts", "assay": "PSC/ASPC-1 subcutaneous xenograft in athymic nude mice", "assay_type": "in vivo", "method": "Six-week-old athymic nude mice were anesthetized for all procedures 5×10^6ASPC-1 cells (human pancreas adenocarcinoma ascites metastasis cell line derived from nude mouse xenografts initiated with cells from the ascites of a patient with cancer of the pancreas) were mixed with 5×10^4 PSC cells and injected in a subcutaneous in athymic nude mice. Before injection, the cells were trypsinized, counted, washed twice in 1×PBS and resuspended in 100 μl of Matrigel® matrix (Corning), and injected between the scapulae. Two weeks after the tumor transplantation, mice were injected with TLY012 via intravenous (IV) injection (10 mg/kg, every other day) for 2 weeks, while control mice received PBS. Western blot was performed on tissue extracts with antibodies against GAPDH (Santa Cruz 5 Biotechnology, sc-1694), α-SMA (Sigma, A2547), GRP78 (Santa Cruz Biotechnology, sc-13968), DR4 (Abcam, Cambridge, Mass., #13890), DR5 (Abcam, #47179), PDGF-Rb (Santa Cruz Biotechnology, sc-432), and Cl.PARP-1 (Cell Signaling Technology, #5625).\nComparative quantitative RT-PCR (qPCR) was performed in the tumor sample for fibrogenic markers. qPCR was performed in triplicate for each sample using fast SYBR Green Master Mix (Thermo Fisher Scientific) and StepOnePlus Real-Time PCR System (Thermo Fisher Scientific). The expression levels of target genes were normalized to the expression of 18s and calculated based on the comparative cycle threshold Ct method (2^−ΔΔCt).\nCollagen deposition was detected with Masson's Trichrome staining and microscopy.\nMouse xenografts were generated as in Example 8. Two weeks after the tumor transplantation, mice were injected with TLY012 via intravenous (IV) injection (10 mg/kg, every other day) and/or sorafenib (20 mg/kg, oral everyday) for 2 weeks. The mice were euthanized when the tumor volume reached 1500 mm^3 and images of the excised xenografts recorded and tumor weight measured."}, "[3]": {"system": "Pancreatic cancer associated fibroblasts (CAF08)", "quoted_text": "Pancreatic cancer associated fibroblasts (CAF08) and maintenance media (PC00B5) were obtained from Vitro Biopharma. 100 of PSCs were culture-activated for 7 to have the confluent population of activated cells or 2×10^4 cells of CAF08 were cultured on a 96 well microplate (Corning, CLS3917) for 24h and were incubated with TLY012 (at 30 ng/ml or 100 ng/ml) for 3h. After incubation, 50 μL of Caspase 3/7 substrate/lysis buffer was added to each well and incubated for 30 min after 30 min of equilibration period to room temperature. The luminescence of each sample was measured on a plate reader (Bio-Tek Instruments Inc) with parameters of 1 min lag time and 0.5 sec/well-read time (n=3).\n(§1) For immunoblot, 100 of PSCs were culture activated on a 6 well plate for 7 days or 2×10^5 of CAF08 cells were plated on 6-well plates followed by control treatment or treatment with TLY012 (at 30 ng/ml or 100 ng/ml) for 3h. The lysates from the cells were tested for the presence of Cl.PARP-1 and SMA using Western bot.\nPancreatic cancer associated fibroblasts (CAF08) and maintenance media (PC00B5) were obtained from Vitro Biopharma and maintained in Pancreatic Stellate CAF maintenance media (Vitro Biopharma, Cat. No. PC00B5).\nAfter incubation, 50 uL of Caspase 3/7 substrate/lysis buffer from Caspase3/7 Glo assay kit (Promega, Madison USA) was added to each well and incubated for 30 min after 30 min of equilibration period to room temperature. The luminescence of each sample was measured on a plate reader (Bio-Tek Instruments Inc) with parameters of 1 min lag time and 0.5 sec/well-read time (n=3).\nFor Western blot, 2×10^5 cells were plated on 6-well plates and were incubated with the same cytotoxic agents as indicated followed by Western blot detection of Cl.PARP-1, PD-L1, DR5, DR4, α-SMA, and β-actin."}, "[4]": {"system": "primary human hepatocytes", "assay": "Off-target toxicity in primary human hepatocytes", "assay_type": "cell-based", "settings": "concentrations up to 100 nM"}, "[5]": {"system": "Human Colon Carcinoma Fibroblasts HC-6231", "assay": "Caspase 3/7 activity in colon cancer associated fibroblasts", "assay_type": "cell-based", "settings": "TLY012 0-1000 ng/ml for 3h, FIG. 12A", "description": "Human Colon Carcinoma Fibroblasts HC-6231 were obtained from Cell Biologics (Catalog Number HC-6231) and maintained in fibroblast media (Cell Biologics, Catalog Number M2267)."}, "[6]": {"system": "activated human primary pancreatic stellate cells (PSCs)", "assay": "Caspase 3/7 activity and immunoblot in activated pancreatic stellate cells", "assay_type": "cell-based", "settings": "TLY012 30 or 100 ng/ml for 3h", "quoted_text": "Human primary pancreatic stellate cells (PSCs) and stellate cell medium (SteCM) were obtained from ScienCell Research Laboratories (Carlsbad, Calif.). PSCs were cultured on Poly-L-Lysine coated plates in SteCM medium supplemented with 2% of FBS, 1% of stellate cell growth supplement, and 1% of penicillin/streptomycin solution according to the manufacturer's instructions. Pancreatic cancer associated fibroblasts (CAF08) and maintenance media (PC00B5) were obtained from Vitro Biopharma. 100 of PSCs were culture-activated for 7 to have the confluent population of activated cells or 2×10^4 cells of CAF08 were cultured on a 96 well microplate (Corning, CLS3917) for 24h and were incubated with TLY012 (at 30 ng/ml or 100 ng/ml) for 3h. After incubation, 50 μL of Caspase 3/7 substrate/lysis buffer was added to each well and incubated for 30 min after 30 min of equilibration period to room temperature. The luminescence of each sample was measured on a plate reader (Bio-Tek Instruments Inc) with parameters of 1 min lag time and 0.5 sec/well-read time (n=3).\nas §1"}},
  "note": "Entries after “also recorded” stand apart in the source; their conditions may differ.",
  "data": [
    {"substance": "TLY012: PEGylated (5 kDa PEG-aldehyde) recombinant human TRAIL (114-281) fused to modified isoleucine zipper (miLZ) at N-terminus; SEQ ID NO:30 trimer", "values": [
      {"measurement": "resistance to multiple freeze-thaw cycles", "setting": "[1]; formulated at 21-22 mg/mi, biological activity and HPLC appearance", "value": "resistant to multiple freeze-thaw cycles"},
      {"measurement": "concentration at which formulation was stable", "setting": "[1]; in the presence of physiological concentrations of salt, no detectable precipitation, same IEX-HPLC pattern", "value": "up to 25 mg/ml"},
      {"measurement": "IC50", "setting": "[2]", "value": 0.142, "unit": "nM"},
      {"measurement": "tumor weight, Mean", "setting": "ASPC-1/PSC xenografts; TLY012 IV 10 mg/kg every other day and/or sorafenib 20 mg/kg oral everyday for 2 weeks", "value": 1109.5, "unit": "mg"},
      {"measurement": "collagen deposition, Masson's Trichrome staining", "setting": "ASPC-1/PSC xenografts; TLY012 IV 10 mg/kg every other day, 2 weeks, 10 mg/kg", "value": "reduced the levels of collagen; also recorded: markedly reduced collagen deposition"},
      {"measurement": "PDGF-Rb, DR5, DR4 (and GRP78) protein levels in tumor, Western blot", "setting": "ASPC-1/PSC xenografts; TLY012 IV 10 mg/kg every other day, 2 weeks, vs PBS controls, 10 mg/kg", "value": "markedly reduced; also recorded: significantly decreased"},
      {"measurement": "mRNA levels of fibrogenic markers Acta2, Pdgf-r, Tgf-b in tumor (qPCR)", "setting": "ASPC-1/PSC xenografts; TLY012 IV 10 mg/kg every other day, 2 weeks, vs control, 10 mg/kg", "value": "decreased; also recorded: significantly reduced"},
      {"measurement": "Cl.PARP-1, immunoblot", "setting": "[3]; TLY012 30 or 100 ng/ml for 3h", "value": "detected"},
      {"measurement": "caspase 3/7 activity (RLU)", "setting": "[3]; TLY012 30 or 100 ng/ml for 3h, vs control treatment", "value": "activated caspase 3/7"},
      {"measurement": "protein levels of α-SMA, Western blotting", "setting": "[3]; pancreatic CAF", "value": "significantly decreased"},
      {"measurement": "off-target toxicity", "setting": "[4]", "value": "did not show any off-target toxicity"},
      {"measurement": "apoptosis by Caspase3/7 activity assay", "setting": "[5]", "value": "induced apoptosis"},
      {"measurement": "Cl.PARP-1, immunoblot", "setting": "[6]", "value": "detected"},
      {"measurement": "caspase 3/7 activity (RLU)", "setting": "[6]; vs control treatment", "value": "activated caspase 3/7"}
    ]}
  ]
}
